Data published in patent US10988474B2, “Compounds acting at multiple prostaglandin receptors giving a general anti-inflammatory response” (ALLERGAN, INC., priority 2011, dated 2021).

Legend:
Assay type in all cases: cell-based
[1] = biological target: T1, human prostanoid TP receptor (Homo sapiens, UniProt P21731); assay: FLIPR Ca2+ signaling PG antagonist assay, TP stable cell line; conditions: HEK-293 EBNA cells, human recombinant TP, no exogenous G-protein; standard agonist U-46619
T1 construct: expressed in transfected cells
T1 sequence (P21731 1-343): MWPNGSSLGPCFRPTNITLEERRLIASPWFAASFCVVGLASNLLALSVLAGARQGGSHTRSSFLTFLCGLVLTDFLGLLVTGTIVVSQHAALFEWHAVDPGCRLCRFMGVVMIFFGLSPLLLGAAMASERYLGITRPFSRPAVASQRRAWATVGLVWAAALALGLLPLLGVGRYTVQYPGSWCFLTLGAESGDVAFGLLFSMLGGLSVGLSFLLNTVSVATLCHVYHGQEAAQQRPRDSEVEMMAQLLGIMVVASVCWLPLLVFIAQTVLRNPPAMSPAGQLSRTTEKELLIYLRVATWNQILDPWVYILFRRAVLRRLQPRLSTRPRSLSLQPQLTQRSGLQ
Method: (§1) The above compounds were tested for PG antagonist activity as follows using human recombinant prostanoid receptor (DP1, EP1-4, FP, IP and TP) stable cell lines: In order to measure the response of Gs and Gi coupled prostanoid receptors as a Ca^2+ signal, chimeric G protein cDNAs were used. Stable cell lines over-expressing human prostanoid DP1, EP1-4, FP, IP, and TP receptors were established as follows:
(§2) Briefly, human prostanoid DP1, EP2, and EP4 receptor cDNAs were co-transfected with chimeric Gqs cDNA containing a haemagglutanin (HA) epitope; human prostanoid EP3 receptors were co-transfected with chimeric Gqi-HA; human EP1, FP, IP, and TP receptor cDNAs were expressed with no exogenous G-proteins. Gqs and Gqi chimeric cDNAs (Molecular Devices, Sunnyvale, Calif., U.S.A.), as well as cDNAs of prostanoid receptors, were cloned into a pCEP4 vector with a hygromycin B selection marker. Transfection into HEK-293 EBNA (Epstein-Barr virus nuclear antigen) cells was achieved by the FuGENE 6 transfection Reagent (Roche Applied Science, Indianapolis, Ind., USA). Stable transfectants were selected according to hygromycin resistance. Because Gqs and Gqi contained an HA epitope, G-protein expression was detected by Western blotting analysis using anti-mouse HA monoclonal antibody and horseradish peroxidase (HRP)-conjugated secondary antibody, while functional expression of prostanoid receptors was detected by FLIPR screening (Matias et al., 2004). These stable cell lines were validated using previously published antagonists at 10 μM against serial dilutions of standard agonists by FLIPR functional assays for Ca^2+ Signaling (as described below).
(§3) Ca^2+ signaling studies were performed using a FLIPR TETRA system (Molecular Devices, Sunnyvale, Calif., USA) in the 384-format. This is a high-throughput instrument for cell-based assays to monitor Ca^2+ signaling associated with GPCRs and ion channels. Cells were seeded at a density of 5×10^4 cells/well in BioCoat poly-D-lysine coated, black wall, clear bottom 384-well plates (BD Biosciences, Franklin lakes, NJ, USA) and allowed to attach overnight in an incubator at 37° C. The cells were then washed twice with HBSS-HEPES buffer (Hanks' balanced salt solution without bicarbonate and phenol red, 20 mM HEPES, pH 7.4) using an ELx405 Select CW Microplate Washer (BioTek, Winooski, Vt., USA). After 60 min of dye-loading in the dark using the Ca^2+-sensitive dye Fluo-4AM (Invitrogen, Carlsbad, Calif., USA), at a final concentration of 2×10^−6M, the plates were washed 4 times with HBSS-HEPES buffer to remove excess dye and leaving 50 μl of buffer in each well. The plates were then placed in the FLIPR TETRA instrument and allowed to equilibrate at 37° C. Compounds were added in a 25 μl volume to each well to give final concentrations of 0.1 μM, 0.3 μM, 1 μM, 3 μM, 10 μM, and 30 μM; or 0.067 μM, 0.1 μM, 0.2 μM, 0.3 μM, 0.67 μM, and 1 μM for cells over-expressing TP receptors. After 4.5 minutes, a 7-point serial dilution of the standard agonist for the corresponding receptor, in a 25 μl volume was injected at the final concentrations from 10^−11M to 10^−5M in 10-fold serial dilution increments for cells expressing human recombinant DP1, EP1, EP2, EP3, EP4, FP, and IP receptors. The dose range for the standard agonist for human recombinant TP receptors was from 10^−12M to 10^−6M. HBSS-HEPES buffer was used as the negative control for the standard agonists. Cells were excited with LED (light emitting diode) excitation at 470-495 nm and emission was measured through an emission filter at 515-575 nm. Assay plates were read for 3.5 minutes using the FLIPR^TETRA. The peak increase in fluorescence intensity was recorded for each well. On each plate, negative controls, dose response of positive controls, and co-treatments of antagonist-agonist for each dose were in triplicates. Standard agonists were as follows: DP=BW 245C, EP1-EP4=PGE2, FP=17-phenyl-PGF2α, IP=Cicaprost, and TP=U-46619. […]

[2] = biological target: T2, human prostanoid EP4 receptor (Homo sapiens, UniProt P35408); assay: FLIPR Ca2+ signaling PG antagonist assay, EP4 stable cell line; conditions: HEK-293 EBNA cells, human recombinant EP4 with chimeric Gqs; standard agonist PGE2
T2 construct: expressed in transfected cells
T2 sequence (P35408 whole entry): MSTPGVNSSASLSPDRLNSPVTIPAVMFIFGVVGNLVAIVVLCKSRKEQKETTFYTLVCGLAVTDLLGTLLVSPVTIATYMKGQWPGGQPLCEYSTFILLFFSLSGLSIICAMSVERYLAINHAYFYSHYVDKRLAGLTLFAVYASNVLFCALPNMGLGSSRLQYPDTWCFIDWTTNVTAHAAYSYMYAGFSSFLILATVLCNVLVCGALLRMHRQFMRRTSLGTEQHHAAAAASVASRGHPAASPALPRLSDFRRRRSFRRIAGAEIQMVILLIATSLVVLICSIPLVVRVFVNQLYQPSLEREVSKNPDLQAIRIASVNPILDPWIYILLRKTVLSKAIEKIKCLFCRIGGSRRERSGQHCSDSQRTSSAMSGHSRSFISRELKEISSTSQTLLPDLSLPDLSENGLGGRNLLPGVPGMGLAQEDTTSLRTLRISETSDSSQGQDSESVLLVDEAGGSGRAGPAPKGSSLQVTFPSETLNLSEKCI
Method: as §1, §2, §3

[3] = biological target: T3, human prostanoid EP1 receptor (Homo sapiens, UniProt P34995); assay: FLIPR Ca2+ signaling PG antagonist assay, EP1 stable cell line; conditions: HEK-293 EBNA cells, human recombinant EP1, no exogenous G-protein; standard agonist PGE2
T3 construct: expressed in transfected cells
T3 sequence (P34995 1-402): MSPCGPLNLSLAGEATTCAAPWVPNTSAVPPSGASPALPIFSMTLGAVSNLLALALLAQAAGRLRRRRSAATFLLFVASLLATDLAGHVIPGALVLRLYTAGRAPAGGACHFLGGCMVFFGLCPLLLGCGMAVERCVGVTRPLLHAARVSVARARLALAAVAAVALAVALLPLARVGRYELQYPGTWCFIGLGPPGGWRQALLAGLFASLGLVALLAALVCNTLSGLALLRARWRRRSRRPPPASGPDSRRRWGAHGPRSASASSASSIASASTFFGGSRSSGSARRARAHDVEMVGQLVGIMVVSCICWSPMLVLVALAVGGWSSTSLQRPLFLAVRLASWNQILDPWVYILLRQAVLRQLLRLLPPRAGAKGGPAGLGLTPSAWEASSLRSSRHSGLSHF
Method: as §1, §2, §3

| Structure (SMILES) | Kb [1] | Kb [2] | Kb [3] |
| --- | --- | --- | --- |
| O=C(O)c1cccc2nn(Cc3cc(Cl)ccc3OCc3ccc(Cl)cc3)cc12 [Example 41, 2-[5-Chloro-2-(4-Chloro-Benzyloxy)-Benzyl]-2H-Indazole-4-Carboxylic Acid] | 7400 nM | ≥ 10000 nM | ≥ 10000 nM |
| CCC(CC)COc1ccc(C(F)(F)F)cc1Cn1nc(C)c2cc(C(=O)O)ccc21 [Example 26, 1-[2-(2-Ethyl-Butoxy)-5-Trifluoromethyl-Benzyl]-3-Methyl-1H-Indazole-5-Carboxylic Acid] | 18 nM | 70 nM | 80 nM |
| CCC(CC)COc1ccc(Br)cc1Cn1ccc2cc(C(=O)O)ccc21 [Example 69, 1-[5-Bromo-2-(2-Ethyl-Butoxy)-Benzyl]-1H-Indole-5-Carboxylic Acid] | 550 nM | 130 nM | 250 nM |
| CCC(CC)Oc1ccc(Br)cc1Cn1ncc2cc(C(=O)O)ccc21 [Example 51, 1-[5-Bromo-2-(1-Ethyl-Propoxy)-Benzyl]-1H-Indazole-5-Carboxylic Acid] | 50 nM | 270 nM | 70 nM |
| CC(C)COc1ccc(Br)cc1Cn1ncc2cc(C(=O)O)ccc21 [Example 4] | 2 nM | 25 nM | 6 nM |
| CC(C)COc1ccc(C(F)(F)F)cc1Cn1ncc2cc(C(=O)O)ccc21 [Example 18] | 4 nM | 60 nM | 40 nM |
| Cc1nn(Cc2cc(Br)ccc2OCC(C)C)c2ccc(C(=O)O)cc12 [Example 21, 1-(5-Bromo-2-Isobutoxy-Benzyl)-3-Methyl-1H-Indazole-5-Carboxylic Acid] | 13 nM | 70 nM | 14 nM |
| CC(C)(O)COc1ccc(Br)cc1Cn1ncc2cc(C(=O)O)ccc21 [Example 53, 1-[5-Bromo-2-(2-Hydroxy-2-Methyl-Propoxy)-Benzyl]-1H-Indazole-5-Carboxylic Acid] | 1200 nM | ≥ 10000 nM | 1500 nM |
| CC(C)COc1ccc(OC(F)(F)F)cc1Cn1ncc2cc(C(=O)O)cnc21 [Example 58, 1-(2-Isobutoxy-5-Trifluoromethoxy-Benzyl)-1H-Pyrazolo[3,4-B]Pyridine-5-Carboxylic Acid] | 70 nM | 380 nM | 30 nM |
| Cc1nn(Cc2cc(Br)ccc2OCC2(C)CC2)c2ccc(C(=O)O)cc12 [Example 28, 1-[5-Bromo-2-(1-Methyl-Cyclopropylmethoxy)-Benzyl]-3-Methyl-1H-Indazole-5-Carboxylic Acid] | 7 nM | 40 nM | 43 nM |
| Cc1cn(Cc2cc(OC(F)(F)F)ccc2OCC(C)C)c2ccc(C(=O)O)cc12 [Example 75, 1-(2-Isobutoxy-5-Trifluoromethoxy-Benzyl)-3-Methyl-1H-Indole-5-Carboxylic Acid] | 300 nM | 280 nM | 20 nM |
| CC(C)COc1c(F)cc(Cl)cc1Cn1ncc2cc(C(=O)O)ccc21 [Example 47, 1-(5-Chloro-3-Fluoro-2-Isobutoxy-Benzyl)-1H-Indazole-5-Carboxylic Acid] | ≥ 10000 nM | ≥ 10000 nM | 2000 nM |
| Cc1nn(Cc2cc(C(F)(F)F)ccc2OCC(C)C)c2ccc(C(=O)O)cc12 [Example 25, 1-(2-Isobutoxy-5-Trifluoromethyl-Benzyl)-3-Methyl-1H-Indazole-5-Carboxylic Acid] | 50 nM | 160 nM | 27 nM |
| CCC(CC)COc1ccc(Cl)cc1Cn1nc(C)c2cc(C(=O)O)ccc21 [Example 23, 1-[5-Chloro-2-(2-Ethyl-Butoxy)-Benzyl]-3-Methyl-1H-Indazole-5-Carboxylic Acid] | 1 nM | 50 nM | 30 nM |
| O=C(O)c1ccc2c(cnn2Cc2cc(Cl)ccc2OCc2ccccc2)c1 [Example 8, 1-(2-Benzyloxy-5-Chloro-Benzyl)-1H-Indazole-5-Carboxylic Acid] | 2100 nM | 1300 nM | 220 nM |
| CCC(CC)COc1ccc(Cl)cc1Cn1ncc2cc(C(=O)O)ncc21 [Example 63, 1-[5-Chloro-2-(2-Ethyl-Butoxy)-Benzyl]-1H-Pyrazolo[3,4-C]Pyridine-5-Carboxylic Acid] | 180 nM | 2500 nM | 1200 nM |
| CC1(COc2ccc(Br)cc2Cn2ncc3cc(C(=O)O)ccc32)CC1 [Example 19] | 50 nM | 14 nM | 12 nM |
| CC(C)COc1ccc(OC(F)F)cc1Cn1ncc2cc(C(=O)O)ccc21 [Example 56, 1-(5-Difluoromethoxy-2-Isobutoxy-Benzyl)-1H-Indazole-5-Carboxylic Acid] | 5 nM | 150 nM | 24 nM |
| O=C(O)c1ccc2c(cnn2Cc2cc(Br)ccc2OCc2ccccc2)c1 [Example 12, 1-(2-Benzyloxy-5-Bromo-Benzyl)-1H-Indazole-5-Carboxylic Acid] | 44 nM | 1150 nM | 360 nM |
| CCC(CC)COc1ccc(Cl)cc1Cn1ccc2cc(C(=O)O)ccc21 [Example 1, 1-[5-Chloro-2-(2-Ethyl-Butoxy)-Benzyl]-1H-Indole-5-Carboxylic Acid] | 150 nM | 70 nM | 180 nM |
| CCC(CC)COc1ccc(Br)cc1Cn1ccc2ccc(C(=O)O)cc21 [Example 70, 1-[5-Bromo-2-(2-Ethyl-Butoxy)-Benzyl]-1H-Indole-6-Carboxylic Acid] | 320 nM | 6000 nM | 200 nM |
| O=C(O)c1ccc2cn(Cc3cc(Br)ccc3OCC3CCCC3)nc2c1 [Example 45, 2-(5-Bromo-2-Cyclopentylmethoxy-Benzyl)-2H-Indazole-6-Carboxylic Acid] | 80 nM | 2000 nM | 23 nM |
| CC(C)COc1ccc(Br)cc1Cn1ccc2nc(C(=O)O)ccc21 [Example 73, 1-(5-Bromo-2-Isobutoxy-Benzyl)-1H-Pyrrolo[3,2-B]Pyridine-5-Carboxylic Acid] | 8 nM | ≥ 10000 nM | 80 nM |
